Experimental data published in PubChem BioAssay (NCI).
Where “and” joins values, the source holds several entries; their conditions need not be identical. Equal entries are not always repeated.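 Step 1: Grow cells in 96-well plates. Step 2: Expose to compound for 48 hours at 5 concentrations. Step 3: Interpolate endpoints linearly; if unreached, use highest concentration. GI50 marks 50% less growth. TGI: concentration producing complete growth inhibition.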

Tests used:
Assay in all cases: NCI tumour cell line growth inhibition, 48 h
786-0 renal = test system: 786-0 renal
HCT-116 colon = test system: HCT-116 colon
HCT-15 colon = test system: HCT-15 colon
HT29 colon = test system: HT29 colon
NCI-H460 lung = test system: NCI-H460 lung
OVCAR-4 ovarian = test system: OVCAR-4 ovarian
SF-539 CNS = test system: SF-539 CNS
UACC-62 melanoma = test system: UACC-62 melanoma
UO-31 renal = test system: UO-31 renal
T-47D breast = test system: T-47D breast

| SMILES | TGI (786-0 renal) | TGI (HCT-116 colon) | TGI (HCT-15 colon) | TGI (HT29 colon) | TGI (NCI-H460 lung) | TGI (OVCAR-4 ovarian) | TGI (SF-539 CNS) | TGI (UACC-62 melanoma) | TGI (UO-31 renal) | GI50 (786-0 renal) | GI50 (HT29 colon) | GI50 (NCI-H460 lung) | GI50 (SF-539 CNS) | GI50 (UACC-62 melanoma) | GI50 (UO-31 renal) | GI50 (HCT-116 colon) | GI50 (HCT-15 colon) | GI50 (OVCAR-4 ovarian) | GI50 (T-47D breast) | TGI (T-47D breast) |
| --- | --- | --- | --- | --- | --- | --- | --- | --- | --- | --- | --- | --- | --- | --- | --- | --- | --- | --- | --- | --- |
| Cc1cn2c(=O)c3ncn(C4OC(CO)C(O)C4O)c3n(C)c2n1 (centres undefined) | > 100 µM | > 100 µM | > 100 µM | > 100 µM | > 100 µM | > 100 µM | > 100 µM | > 100 µM | > 100 µM | – | – | – | – | – | – | – | – | – | – | – |
| C#CCOc1cccc(-c2ncc3cc(NC(=O)CCl)ccc3n2)c1 | 3.59 µM | – | – | 3.99 µM | 4.83 µM | – | 2.92 µM | 3.36 µM | 2.91 µM | 2.01 µM | 2.02 µM | 2.16 µM | 1.51 µM | 1.52 µM | 1.52 µM | – | – | – | – | – |
| Cc1ccc(S(=O)(=O)N(C=O)N=C2CCN(Cc3ccccc3)CC2)cc1 | > 100 µM | > 100 µM | > 100 µM | > 100 µM | > 100 µM | > 100 µM | > 100 µM | > 100 µM | > 100 µM | – | – | – | – | – | – | – | – | – | – | – |
| O=C(Nc1ccn(CCO)c(=O)n1)c1ccccc1 | > 100 µM | > 100 µM | > 100 µM | > 100 µM | > 100 µM | > 100 µM | > 100 µM | > 100 µM | > 100 µM | – | – | – | – | – | – | – | – | – | – | – |
| N.N.N.N.O=C([O-])CCl.O=C([O-])CCl.[Co+3].[O-][Cl+3]([O-])([O-])[O-] | > 100 µM | > 100 µM | > 100 µM | > 100 µM | > 100 µM | > 100 µM | > 100 µM | > 100 µM | > 100 µM | > 100 µM | > 100 µM | > 100 µM | > 100 µM | > 100 µM | > 100 µM | > 100 µM | > 100 µM | > 100 µM | – | – |
| N#CN/C(N)=N/CO | > 62.1 µM | > 64.4 µM | > 56.9 µM | > 100 µM | > 100 µM | > 100 µM | > 100 µM | > 100 µM | > 100 µM | – | – | – | – | – | – | – | – | – | – | – |
| NC(=O)/C=C/C(=O)c1c(Cl)cccc1Cl | – | – | 2.3 µM | > 100 µM | 3.49 µM | – | 2.71 µM | 2.84 µM | 0.859 µM | 2.14 µM | 1.55 µM | 1.82 µM | 1.41 µM | 1.51 µM | 0.429 µM | 0.476 µM | – | – | 0.191 µM | 0.408 µM |
| Clc1ccc2c(c1)[nH]c1c2nc2ccccn21 | 37.5 µM and 33.1 µM | 48.3 µM and 46.6 µM | > 100 µM and 38.5 µM | 45.4 µM and 28.9 µM | > 100 µM and 35.9 µM | – | 50.3 µM and 30.6 µM | – | 53.7 µM and 37.5 µM | – | – | 44.3 µM and 17.4 µM | – | – | – | – | 40.8 µM and 20 µM | – | – | – |
| CC(=O)Nc1ccc(S(=O)(=O)N2C(=O)CCC2C(=O)Nc2ccc(Br)cc2)cc1 (centres undefined) | 7.27 µM | > 100 µM | 13 µM | 14.7 µM | 24.5 µM | – | 6.78 µM | 4.54 µM | 8.21 µM | 2.2 µM | 2.76 µM | 2.63 µM | 2.45 µM | 0.648 µM | 1.38 µM | 1.74 µM | 1.72 µM | – | 0.532 µM | 5.93 µM |
| CC12C/C(=C\c3ccccc3)C(=O)C3C1CCCC32 | > 100 µM | > 100 µM | > 100 µM | > 100 µM | > 100 µM | > 100 µM | > 100 µM | > 100 µM | > 100 µM | – | – | – | – | – | – | – | – | – | – | – |
| COc1ccc(/C=C\[N+](=O)[O-])cc1OC | 3.87 µM | 2.85 µM | 6.45 µM | 5.87 µM | 21.2 µM | 27.5 µM | – | 12.3 µM | 3.87 µM | 1.9 µM | 1.87 µM | 4.99 µM | – | 2.62 µM | 1.85 µM | 1.37 µM | 2.19 µM | 14 µM | 7.6 µM | 38.2 µM |
| O=C(CCN(C(=O)O)S(=O)(=O)c1ccc(NC(=O)c2ccccc2)cc1)Nc1ccccc1 | > 100 µM | > 69.5 µM | > 75.2 µM | > 100 µM | > 83.6 µM | > 100 µM | > 100 µM | 97.5 µM | > 100 µM | – | – | – | – | – | – | – | – | – | – | – |
| CC(C)C(CCl)NC(=O)c1cccc(C(=O)N[C@H](CCl)C(C)C)n1 (stereo in doubt) | > 100 µM | > 100 µM | > 100 µM | > 100 µM | > 100 µM | > 100 µM | > 100 µM | – | > 100 µM | – | – | – | – | – | – | – | – | – | – | – |
| COC(=O)C(C(=O)c1ccccc1)C(C(=O)C(=O)Nc1ccc(OC)cc1OC)C(=O)C(=O)c1ccc(C)cc1 (centres undefined) | > 100 µM | > 100 µM | > 100 µM | > 100 µM | > 100 µM | > 100 µM | > 100 µM | > 100 µM | > 100 µM | – | – | – | – | – | – | – | – | – | – | – |
| CC1=C(C(=O)Nc2ccc(F)c(Cl)c2)C(c2ccccc2O)NC(=S)N1 (centres undefined) | > 50 µM | > 50 µM | > 50 µM | – | > 50 µM | – | – | > 50 µM | > 50 µM | > 50 µM | – | 21.4 µM | – | > 50 µM | > 50 µM | > 50 µM | 45.1 µM | – | > 50 µM | > 50 µM |
| CCOC(=O)c1cnc2c(ccc3[nH]n(C)nc32)c1=O | > 100 µM | 61.4 µM | > 100 µM | > 100 µM | > 100 µM | – | – | > 100 µM | > 100 µM | – | – | – | – | – | – | – | – | – | – | – |
| COC(=O)C1c2cc3c(cc2C(OC2OC(C)C(OC)C(C)(OC)C2OC)CC1(C)O)C(=O)c1c(O)cc2c(c1C3=O)OC1OC2(C)C(O)C([N+](C)(C)[O-])C1O (centres undefined) | > 40.5 µM | > 100 µM | > 100 µM | – | – | > 100 µM | – | 0.311 µM | 5.7 µM | – | – | – | – | – | – | – | – | – | – | 0.847 µM |
| CC(C)CCC1CC2C(=O)N(c3ccccc3)C(=O)C2c2[nH]c3ccccc3c21 (centres undefined) | 15.9 µM | – | 13.4 µM | 11 µM | 12.2 µM | 20.7 µM | 10.8 µM | 20.9 µM | 18.9 µM | – | – | – | – | – | – | – | – | – | – | – |
| CSc1nc(=O)n(CCC#N)nc1SC | 44.6 µM | 30.1 µM | > 100 µM | > 100 µM | > 100 µM | – | > 100 µM | > 100 µM | > 100 µM | – | – | – | – | – | – | – | – | – | – | 62.7 µM |
| CN1CC(=O)N2Cc3ccccc3-n3cccc3C2C1 (centres undefined) | > 100 µM | > 100 µM | > 100 µM | > 100 µM | > 100 µM | > 100 µM | > 100 µM | > 100 µM | > 100 µM | – | – | – | – | – | – | – | – | – | – | – |
| OC(CC1SCCCS1)c1ccccc1 (centres undefined) | > 100 µM | > 100 µM | > 100 µM | > 100 µM | > 100 µM | > 100 µM | > 100 µM | > 100 µM | > 100 µM | – | – | – | – | – | – | – | – | – | – | – |
